Experimental data as given in US11512089B2, “Substituted [1,2,4]triazolo[3,4-a]phthalazines as modulators of GABAA receptor activity” (SHANGHAI SIMR BIOTECHNOLOGY CO., LTD, priority 2018, dated 2022).
Values after ≈ are worked out from the molar mass of the structure shown.

Experiments:
[1] = Kinetic solubility in 50 mM phosphate buffer pH 7.4; type: physicochemical; details: aqueous buffer, kinetic from dmso stock, 50 mM phosphate buffer pH 7.4, 2% DMSO, room temperature
Description: (§1) 50 mM phosphate buffer pH=7.4: 0.39 g of NaH2PO4.2H2O, and 1.4025 g of Na2HPO4 were weighted and placed in an erlenmeyer flask, 240 mL of water was added. The solid was dissolved and mixed thoroughly, the pH value was adjusted to 7.4 with 10M NaOH solution, and the resulting solution was transferred to a 250 mL volumetric flask, followed by adding water to the mark.
(§2) Waters e2695 HPLC high performance liquid chromatography, Mettler XSE105 analytical balance.
(§3) Firstly, a 10 mM stock solution with DMSO as the solvent was prepared, and was diluted with a diluent (ACN: PB buffer 50:50) into 1 μM-200 μM as standard solution.
Kinetic solubility. 30 μL of the stock solution was placed in a 2 mL centrifuge tube, 1470 μL of 50 mM phosphate buffer (pH 7.4) (containing DMSO at a final concentration of 2%) was added. The mixture was shaken at room temperature (1000 rpm/min) for 24 hours, and then filtered. The filtrate was tested by high performance liquid chromatography (UV).

[2] = Thermodynamic solubility in 50 mM phosphate buffer pH 7.4; type: physicochemical; details: aqueous buffer, thermodynamic from solid, 50 mM phosphate buffer pH 7.4, room temperature
Description: as §1, §2, §3
Thermodynamic solubility. About 1 mg of the sample was weighted, 1.5 mL of 50 mM phosphate buffer (pH 7.4) was added thereto, and the mixture was shaken at room temperature for 24 hours to ensure that the solution reached a state of saturation. The solution was then filtered, and the filtrate was tested with high-performance liquid chromatography (UV).

α5-GABAA receptor [3] = molecular target: T1, α5-GABAA receptor (Homo sapiens, UniProt P18507+P31644); test: Whole cell patch clamp, inverse agonism efficacy on GABA-induced current in HEK-293 cells expressing α5-GABAA receptor; type: cell-based; details: HEK293; compound 100 nM, GABA 0.05 μM; ratio to reference compound Example 7 in CN106854207A in the same batch
T1 construct: expressed in transfected cells; host or cells: HEK-293 (monoclonal, stably transfected)
T1 sequence (P28472 26-473 partner, one chain of several): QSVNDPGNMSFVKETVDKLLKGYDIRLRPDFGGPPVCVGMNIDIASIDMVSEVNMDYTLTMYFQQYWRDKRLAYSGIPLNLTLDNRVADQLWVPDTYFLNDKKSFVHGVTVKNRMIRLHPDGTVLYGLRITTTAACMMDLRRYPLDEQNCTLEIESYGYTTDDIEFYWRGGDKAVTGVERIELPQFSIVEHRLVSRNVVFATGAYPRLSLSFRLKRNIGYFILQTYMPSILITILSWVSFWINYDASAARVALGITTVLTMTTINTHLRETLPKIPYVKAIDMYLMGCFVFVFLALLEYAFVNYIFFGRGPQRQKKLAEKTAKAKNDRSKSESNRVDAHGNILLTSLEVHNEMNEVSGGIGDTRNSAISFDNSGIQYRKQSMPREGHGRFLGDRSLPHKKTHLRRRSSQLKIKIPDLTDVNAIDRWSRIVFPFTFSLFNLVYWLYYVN
T1 sequence (P18507 40-467 isoform P18507-1 limits assumed, one chain of several): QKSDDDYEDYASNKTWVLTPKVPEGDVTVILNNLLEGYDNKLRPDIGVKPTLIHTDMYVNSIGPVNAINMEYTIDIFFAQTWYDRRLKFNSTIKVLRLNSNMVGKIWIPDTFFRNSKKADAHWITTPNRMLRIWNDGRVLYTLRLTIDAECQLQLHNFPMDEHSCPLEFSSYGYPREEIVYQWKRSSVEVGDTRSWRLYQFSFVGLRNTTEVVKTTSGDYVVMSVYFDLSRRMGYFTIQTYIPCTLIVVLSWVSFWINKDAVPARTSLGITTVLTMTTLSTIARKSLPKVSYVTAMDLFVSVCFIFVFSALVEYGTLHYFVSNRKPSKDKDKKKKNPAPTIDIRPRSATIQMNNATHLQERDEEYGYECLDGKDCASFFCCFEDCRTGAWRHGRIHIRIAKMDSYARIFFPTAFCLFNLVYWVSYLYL
Description: The inventors used electrophysiological methods to determine the inverse agonist efficacy of the substances to be tested. The detailed procedures are as follows:
(1) Different subunits of GABAA receptors were expressed in human embryonic kidney cells 293 (HEK293). The cells were cultured in a culture medium and used as a cell model for screening potential analgesics. The α, β and γ subunits are necessary to form complete functional GABAA receptors. In this example, the inventors have established the following cell model: (a) α5 subunit (protein sequence is GenBank accession number: NM_000810.3), (33 subunit (protein sequence is GenBank accession number: NM_000814.5) and γ2 subunit (protein sequence is GenBank accession number: NM_000816.3) were expressed in HEK-293 cell line at the same time, followed by screening the monoclonal cell line. This cell line contained α5-GABAA receptor and had complete GABAA receptor function.
(2) The monoclonal stably transfected HEK-293 cells expressing α5-GABAA receptor were cultured in 10 cm culture dishes. The cells were passaged after reaching 80-90% confluence. During passaging, the culture medium was removed and discarded, 3 mL of DPBS (phosphate buffered saline, Gibco™) was added to the dishes, the dishes were shaken slightly, and DPBS was removed and discarded. 1 mL of trypsin (TrypLE Express, Gibco™) was added and the cells were digested at 37° C. for 1-2 minutes. Then 3 mL of complete medium (DMEM+10% FBS (Gibco™)) was added and the cells at the bottom of the culture dishes were dispersed. The cell suspension were transferred to a 15 mL centrifugal tube (Corning™) and then centrifuged at 200 g for 3 minutes. The supernatant was discarded, 4 mL of complete medium was added, and the cells were resuspended by gently blowing. The cell suspension was diluted by 1:5 or 1:10 for subculturing. The cell suspension was diluted by 1:12 for electrophysiology experiment, and added to a 24 well plate (Corning™) with a glass slide pre-treated with poly-D-lysine placed thereon; the experiment was initiated after the cells were adhered to the slide. The cells for electrophysiology experiment were maintained in culture for no more than 48 hours before use.
(3) Compound concentration: for screening, all compounds were diluted to a final concentration of 100 nM and the concentration of GABA was 0.05 μM. The compounds were at the concentration of 0.3 nM, 3 nM, 10 nM, 30 nM, 100 nM and 300 nM in dose-inverse agonism efficacy (%) experiment. The whole cell patch clamp technique was used in electrophysiology experiments, which can refer to the literature (I. Lecker, Y. Yin, D. S. Wang and B. A. Orser, (2013) Potentiation of GABAA receptor activity by volatile anaesthetics is reduced by α5-GABAA receptor-preferring inverse agonists, British Journal of Anaesthesia 110 (S1): i73-i81). The extracellular solution (ECS) contained: 150 mM NaCl, 5 mM KCl, 2.5 mM CaCl2, 1 mM MgCl2, 10 mM HEPES and 10 mM glucose (pH 7.4); Patch electrodes were filled with an intracellular solution containing: 140 mM CsCl, 11 mM EGTA, 10 mM HEPES, 2 mM CaCl2, 1 mM MgCl2, 4 mM MgATP, 2 mM TEA (pH 7.3). The currents were recorded by an EPC-10 amplifier and the PatchMaster software (HEKA). Patch electrodes with a resistance of 4-6 MΩ were pulled from borosilicate glass. The ALA-VC3-8PP™ system was used for extracellular administration. Separate cells that grew independently was selected for recording. During recording, the membrane voltage was clamped at −60 mV. During experiment, the cells were firstly perfused with ECS for 20 seconds. When the baseline reached to a stable state, the cells were then perfused with GABA solution. Then the current induced by GABA could be detected. After about 20 to 40 seconds, the current was stable. ECS was switched to compounds solution and the effects of the compounds were detected. At last, the perfusion solution was switched to ECS. […]

α5-GABAA = molecular target: T2, α5-GABAA (Homo sapiens, UniProt P31644); details: cited from earlier work
T2 sequence (P31644 32-462): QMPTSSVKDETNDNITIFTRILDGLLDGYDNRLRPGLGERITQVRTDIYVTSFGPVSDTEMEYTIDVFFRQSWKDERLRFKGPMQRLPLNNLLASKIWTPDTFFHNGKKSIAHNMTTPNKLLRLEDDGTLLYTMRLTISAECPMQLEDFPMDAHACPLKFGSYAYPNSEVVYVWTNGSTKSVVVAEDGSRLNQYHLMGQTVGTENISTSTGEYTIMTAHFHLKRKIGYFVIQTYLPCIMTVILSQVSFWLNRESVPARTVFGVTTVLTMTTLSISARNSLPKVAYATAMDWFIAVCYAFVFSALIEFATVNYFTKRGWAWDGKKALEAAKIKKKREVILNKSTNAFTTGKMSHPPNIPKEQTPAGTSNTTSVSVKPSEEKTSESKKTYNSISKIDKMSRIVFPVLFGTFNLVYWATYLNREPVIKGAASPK

α5-GABAA receptor [4] = details: cited from earlier work
[5] = Pharmacokinetic experiment on rats, oral; type: in vivo; details: rat; male SD rats, po 1 mg/kg, 50% PEG400/50% water, plasma
Description: In the pharmacokinetic experiment on rats, the maximum drug concentration (Cmax) in the blood was determined to evaluate the absorption of the compounds in rats. All rats fasted overnight before administration; the test compounds were dissolved and administered orally (po, intragastric administration) to male SD rats, with 3 rats in each group. After administration of the test compounds, blood was collected by jugular vein puncture at […] with 0.25 mL per sample. The plasma drug concentration was determined by LC-MS/MS method, and the pharmacokinetic parameters were calculated by Phoenix WinNonlin7.0. The dose was 1 mg/kg, and the menstruum was 50% PEG400/50% water.

solubility kinetic at 24 h [1] [µg/mL]	solubility thermodynamic at 24 h [2] [µg/mL]	Emax at 0.1 µM (α5-GABAA receptor [3]) [%]	Compound	other results
8.02 (≈ 17.5 µM)	3.39 (≈ 7.38 µM)	78	CCNC(=O)c1ccc(COc2nn3c(-c4cc(COC)on4)nnc3c3ccccc23)nc1 [Compound 02, N-ethyl-6-[3-(5-methoxymethyl-isoxazol-3-yl)-[1,2,4]triazolo[3,4-a]phthalazin-6-yloxymethyl]-nicotinamide]	
9.23 (≈ 19.5 µM)	4.4 (≈ 9.29 µM)	106	COCc1cc(-c2nnc3c4ccccc4c(OCc4ccc(C(=O)NC(C)C)cn4)nn23)no1 [Compound 11, N-isopropyl-6-[3-(5-methoxymethyl-isoxazol-3-yl)-[1,2,4]triazolo[3,4-a]phthalazin-6-yloxymethyl]-nicotinamide]	
10.9 (≈ 23.1 µM)	9.05 (≈ 19.2 µM)	94	COCc1cc(-c2nnc3c4ccccc4c(OCc4ccc(C(=O)NC5CC5)cn4)nn23)no1 [Compound 12, N-cyclopropyl-6-[3-(5-methoxymethyl-isoxazol-3-yl)-[1,2,4]triazolo[3,4-a]phthalazin-6-yloxymethyl]-nicotinamide]	
91.9 (≈ 200 µM)	84.7 (≈ 184 µM)	72.1	COCc1cc(-c2nnc3c4ccccc4c(OCc4ccc(C(=O)N(C)C)cn4)nn23)no1 [Compound 37]	
17.8 (≈ 35.4 µM)	8.7 (≈ 17.3 µM)	93.4	COCc1cc(-c2nnc3c4ccccc4c(OCc4ccc(C(=O)N5CCOCC5)cn4)nn23)no1 [Compound 38, {6-[3-(5-methoxymethyl-isoxazol-3-yl)-[1,2,4]triazolo[3,4-a]phthalazin-6-yloxymethyl]-pyridin-3-yl}-morpholin-4-methanone]	
5.89 (≈ 11.7 µM)	6.02 (≈ 12 µM)	73.3	COCc1cc(-c2nnc3c4ccccc4c(OCc4ccc(C(=O)N5CC(OC)C5)cn4)nn23)no1 [Compound 42]	
			CCOC(=O)c1ncn2c1[C@@H]1CCCN1C(=O)c1cc(OC)ccc1-2 [L-655,708]	inhibition efficacy of the highest dose on the current induced by GABA (α5-GABAA; GABA concentration 1 μM): 15%; inhibition on the current induced by GABA (α5-GABAA; GABA concentration higher than 1 μM): no inhibition
			Cc1cc(-c2nncc3c(C(C)(C)C)c(OCc4ncnn4C)nn23)no1 [MRK016, 3-tert-butyl-7-(5-methylisoxazol-3-yl)-2-(1-methyl-1H-1,2,4-triazol-5-ylmethoxy)pyrazolo[1,5-d][1,2,4]triazine]	block of the binding of (^3H)R0-15-1788 in brain (α5-GABAA receptor [4]): efficiently block
			CCNC(=O)c1ccc(COc2nn3c(-c4cc(COC)on4)nnc3c3ccccc23)nc1 [drawing 172]	Cmax [5]: 24.7 ng/mL
			CCNC(=O)c1ccc(COc2nn3c(-c4cc(C)on4)nnc3c3ccccc23)nc1 [drawing 173, reference compound]	Cmax [5]: 19 ng/mL
			COCc1cc(-c2nnc3c4ccccc4c(OCc4ccc(C(=O)N5CCOCC5)cn4)nn23)no1 [drawing 174]	Cmax [5]: 48 ng/mL
			Cc1cc(-c2nnc3c4ccccc4c(OCc4ccc(C(=O)N5CCOCC5)cn4)nn23)no1 [drawing 175, reference compound]	Cmax [5]: 22.4 ng/mL
2.2 (≈ 4.96 µM)	1.8 (≈ 4.06 µM)		Cc1cc(-c2nnc3c4ccccc4c(OCc4ccc(C(=O)NC(C)C)cn4)nn23)no1 [reference compound]	
2.16 (≈ 4.89 µM)	0.82 (≈ 1.86 µM)		Cc1cc(-c2nnc3c4ccccc4c(OCc4ccc(C(=O)NC5CC5)cn4)nn23)no1 [reference compound]	
< 0.46	< 0.46		Cc1cc(-c2nnc3c4ccccc4c(OCc4ccc(C(=O)NCC(F)F)cn4)nn23)no1 [reference compound]	
0.97 (≈ 1.92 µM)	0.98 (≈ 1.94 µM)		Cc1cc(-c2nnc3c4ccccc4c(OCc4ccc(C(=O)N5CCC(F)(F)CC5)cn4)nn23)no1 [reference compound]	
